Measurements as given in patent US4693992A, “Bacitracin-metal-polyether antibiotic complexes” (International Minerals & Chemical Corp., priority 1985, dated 1987).

What was measured:
buffered rumen fluid = assay: Rumen screen, in vitro ruminal volatile fatty acid ratio (Examples 15, 16); type: cell-based, steer; settings: Neg. Control 1.39
Protocol: Rumen fluid was removed from a fistulated steer and strained through a cheesecloth. An equal amount of pH 7 buffer was added to strained rumen fluid. After layering occurred, the lower layer was saved and again diluted with equal amount of buffer. Ten ml. portions of buffered rumen fluid were added to fermentation vessels containing 500 mg. fresh finely ground cattle ration, 1 mg cellubiose and a test compound listed in Table 1 below at the indicated concentration. The fermentation vesels were outfitted with one-way gas valves, placed in an incubator and shaken for 24 hours at 38° C. Fermentation was stopped by addition of 1 ml mercuric chloride. The liquid was decanted and analyzed for volatile fatty acids by gas chromatography. Test results are summarized in Table 1, wherein Bac=bacitracin.
The procedures of Example 15 were repeated in all essential details with the test compounds and concentrations listed in Table 1 below, as are the results of the test.

Eimeria tenella [1] = assay: Anticoccidial activity in chickens inoculated with Eimeria tenella oocysts (Example 11); type: in vivo; settings: for Incidence of Bloody Droppings / Morbidity: 4th-6th day; for Morbidity: birds affected/birds in group; for Mortality: 4th-7th day, birds dead/birds in group; for F/G Day 0-3 / F/G Day 4-10: feed per gain
Protocol: (§1) This example describes experimental testing of complexes of this invention for anticoccidial activity. Anticoccidial activities of test compounds were determined by administering the compounds (in feed) to chickens inoculated with active oocysts of Eimeria tenella. The test compounds, which are listed in Table 1 below, included four bacitracin-metal-polyether antibiotic complexes prepared according to the procedures described above. In addition, sodium lysocellin, regular bacitracin, sodium monensin, sodium lasolocid, and unmedicated inoculated and noninoculated controls were included for comparative purposes.
(§2) The test animals were Hubbard White Mountain male chicken (broiler strain) that were 5 days old at the beginning of the test. Each experimental compound was administered in a chick starter diet (Table 2) at a level of 80 g/ton and 120 g/ton. At 7 days of age, chicks were individually weighed, banded, and started on their respective treatments. Each treatment was replicated three times with five birds per replicate for a total of 15 birds per group. The test period was 10 days.
Seventy-two hours after the initiation of medication, birds were reweighed and orally inoculated with approximately 100,000 Eimeria tenella oocysts suspended in a 1 cc dose of saline. The following criteria were then evaluated over the next seven days: […]
a. morbidity (4th-6th day) b. mortality (4th-7th day) c. incidence of bloody droppings (4th-6th day)

Eimeria tenella [2] = assay: Anticoccidial activity in chickens inoculated with Eimeria tenella (Example 12); type: in vivo, chicken; settings: for Cecal bleeding associated with E. tenella infections: 80 gram per ton
Protocol: as §1, §2
Seventy-two hours after the initiation of medication, birds were reweighed and orally inoculated with approximately 100,000 Eimeria tenella oocysts suspended in a 1 cc dose of saline. The following criteria were then evaluated over the next seven days:
A satisfactory challenge was obtained with Eimeria tenella.

[3] = Weight gain and feed utilization efficiency in chicks, 11 days (Example 13); type: in vivo, chicken; parameters: key to Average Weight: average weight in grams; settings: .00275% in rye basal diet
Protocol: (§3) This example describes experimetnal testing of complexes of the present invention as feed additives for improving weight gain or feed utilization efficiency in birds. Test animals were male meat-type chickens (Hubbard strain). Fluorescent room lights were on a 16 hours light/8 hours dark schedule. The chicks were allotted to the pens on the basis of weight classes, and chicks in the even numbered pens were wing banded. Group weights were obtained at the start and individual weights at the termination of the experiment. Chicks weighing between 55 and 65 grams were selected for the test. The test compounds were blended with a basal feed ration (shown in Table 2) at the indicated concentration. Birds fed […] and feed supplemented with zinc bacitracin (Baciferm® 50, International Minerals and Chemical Corp.) were used as controls. The test was continued for 11 days, after which individual weights, pen weight and feed consumption were recorded and analyzed.

[4] = Weight gain and feed utilization in chicks, 12 days (Example 14); type: in vivo, chicken; settings: .0066% in feed
Protocol: as §3
All of the bacitracin-metal-polyether antibiotic complexes tested produced statistically significant increases in gains compared to the unmedicated basal ration.
The test involving test compounds 1 and 3-14 consisted of 5 replicates of 7 chicks and those involving test compound 2 consisted of 6 replicates of 7 chicks. The tests were continued for 12 days, after which individual weight gains and feed conusumption were recorded and analyzed.

[5] = 14 g/ton Lasalocid (Approx.), regrouped part of Table 2
[6] = 36 g/ton Lasalocid (Approx.), regrouped part of Table 2

Substance: sodium lysocellin [reference compound]
- A/P Ratio (buffered rumen fluid; Example 15, 5 ppm, 24 hours at 38° C.): 1.07
- A/P Ratio (buffered rumen fluid; Example 16, 5 ppm): 1.07

Substance: Bacitracin-Cobalt-Lysocellin Complex [Example 1]
- Incidence of Bloody Droppings (Eimeria tenella [1]; 80 g/ton in feed): Severe
- Morbidity (Eimeria tenella [1]; 80 g/ton in feed): 10/15
- Mortality (Eimeria tenella [1]; 80 g/ton in feed): 0/15
- Gain, Grams Day 0-3 (Eimeria tenella [1]; 80 g/ton in feed): 58.4 Grams
- Gain, Grams Day 4-10 (Eimeria tenella [1]; 80 g/ton in feed): 196.5 Grams
- F/G Day 0-3 (Eimeria tenella [1]; 80 g/ton in feed): 1.75
- F/G Day 4-10 (Eimeria tenella [1]; 80 g/ton in feed): 1.71
- Incidence of Bloody Droppings (Eimeria tenella [1]; 120 g/ton in feed): Moderate
- Morbidity (Eimeria tenella [1]; 120 g/ton in feed): 4/15
- Mortality (Eimeria tenella [1]; 120 g/ton in feed): 0/15
- Gain, Grams Day 0-3 (Eimeria tenella [1]; 120 g/ton in feed): 54.1 Grams
- Gain, Grams Day 4-10 (Eimeria tenella [1]; 120 g/ton in feed): 209.1 Grams
- F/G Day 0-3 (Eimeria tenella [1]; 120 g/ton in feed): 1.81
- F/G Day 4-10 (Eimeria tenella [1]; 120 g/ton in feed): 1.66
- Cecal Bleeding (Eimeria tenella [2]; [5]): Severe
- Gain/Bird Days 0-3 (Eimeria tenella [2]; [5]): 61.6
- Gain/Bird Days 4-10 (Eimeria tenella [2]; [5]): 180.1
- Cecal Bleeding (Eimeria tenella [2]; [6]): Slight
- Feed/Gain Days 0-3 (Eimeria tenella [2]; [6]): 1.65
- Gain/Bird Days 0-3 (Eimeria tenella [2]; [6]): 59.0
- Gain/Bird Days 4-10 (Eimeria tenella [2]; [6]): 188.4
- Incidence of Bloody Droppings (Eimeria tenella [2]; 80 g/ton in feed): Severe
- Morbidity (Eimeria tenella [2]; 80 g/ton in feed): 6/15
- Mortality (Eimeria tenella [2]; 80 g/ton in feed): 0/15
- F/G Day 0-3 (Eimeria tenella [2]; 80 g/ton in feed): 1.62
- Gain/Bird Grams Day 0-3 (Eimeria tenella [2]; 80 g/ton in feed): 61.6 Grams
- F/G Day 4-10 (Eimeria tenella [2]; 80 g/ton in feed): 1.86
- Gain/Bird Grams Day 4-10 (Eimeria tenella [2]; 80 g/ton in feed): 180.1 Grams
- Cecal bleeding associated with E. tenella infections (Eimeria tenella [2]): severe
- weight gains compared with those of test compound 5 and lasalocid (Eimeria tenella [2]; 80 gram per ton (lasalocid 24 gram per ton)): appreciably higher
- Incidence of Bloody Droppings (Eimeria tenella [2]; 120 g/ton in feed): Slight-
- Morbidity (Eimeria tenella [2]; 120 g/ton in feed): 4/15
- Mortality (Eimeria tenella [2]; 120 g/ton in feed): 0/15
- F/G Day 0-3 (Eimeria tenella [2]; 120 g/ton in feed): 1.64
- Gain/Bird Grams Day 0-3 (Eimeria tenella [2]; 120 g/ton in feed): 59.0 Grams
- F/G Day 4-10 (Eimeria tenella [2]; 120 g/ton in feed): 1.78
- Gain/Bird Grams Day 4-10 (Eimeria tenella [2]; 120 g/ton in feed): 188.4 Grams
- anticoccidial activity (in words) (Eimeria tenella [2]; 120 grams per ton): good anticoccidial activity
- A/P Ratio (buffered rumen fluid; Example 15, 10 ppm, 24 hours at 38° C.): 1.10

Substance: Bacitracin-Sodium-Lysocellin Complex [Example 5]
- Morbidity (Eimeria tenella [1]; 80 g/ton in feed): 4/15
- Mortality (Eimeria tenella [1]; 80 g/ton in feed): 0/15
- Gain, Grams Day 0-3 (Eimeria tenella [1]; 80 g/ton in feed): 56.1 Grams
- Gain, Grams Day 4-10 (Eimeria tenella [1]; 80 g/ton in feed): 219.9 Grams
- F/G Day 0-3 (Eimeria tenella [1]; 80 g/ton in feed): 1.70
- F/G Day 4-10 (Eimeria tenella [1]; 80 g/ton in feed): 1.62
- Incidence of Bloody Droppings (Eimeria tenella [1]; 120 g/ton in feed): Moderate
- Morbidity (Eimeria tenella [1]; 120 g/ton in feed): 1/15
- Mortality (Eimeria tenella [1]; 120 g/ton in feed): 1/15
- Gain, Grams Day 0-3 (Eimeria tenella [1]; 120 g/ton in feed): 58.8 Grams
- Gain, Grams Day 4-10 (Eimeria tenella [1]; 120 g/ton in feed): 228.3 Grams
- F/G Day 0-3 (Eimeria tenella [1]; 120 g/ton in feed): 1.72
- F/G Day 4-10 (Eimeria tenella [1]; 120 g/ton in feed): 1.62
- Cecal Bleeding (Eimeria tenella [2]; [5]): Severe
- Gain/Bird Days 0-3 (Eimeria tenella [2]; [5]): 59.9
- Gain/Bird Days 4-10 (Eimeria tenella [2]; [5]): 147.7
- anticoccidial activity (in words) (Eimeria tenella [2]; 36 (0.30 of 120) grams per ton): fair anticoccidial activity
- Cecal Bleeding (Eimeria tenella [2]; [6]): Moderate
- Gain/Bird Days 0-3 (Eimeria tenella [2]; [6]): 58.6
- Gain/Bird Days 4-10 (Eimeria tenella [2]; [6]): 169.4
- Incidence of Bloody Droppings (Eimeria tenella [2]; 80 g/ton in feed): Severe
- Morbidity (Eimeria tenella [2]; 80 g/ton in feed): 11/15
- Mortality (Eimeria tenella [2]; 80 g/ton in feed): 0/15
- F/G Day 0-3 (Eimeria tenella [2]; 80 g/ton in feed): 1.68
- Gain/Bird Grams Day 0-3 (Eimeria tenella [2]; 80 g/ton in feed): 59.9 Grams
- F/G Day 4-10 (Eimeria tenella [2]; 80 g/ton in feed): 2.12
- Gain/Bird Grams Day 4-10 (Eimeria tenella [2]; 80 g/ton in feed): 147.7 Grams
- Cecal bleeding associated with E. tenella infections (Eimeria tenella [2]): severe
- Incidence of Bloody Droppings (Eimeria tenella [2]; 120 g/ton in feed): Moderate
- Morbidity (Eimeria tenella [2]; 120 g/ton in feed): 8/15
- Mortality (Eimeria tenella [2]; 120 g/ton in feed): 0/15
- F/G Day 0-3 (Eimeria tenella [2]; 120 g/ton in feed): 1.65
- Gain/Bird Grams Day 0-3 (Eimeria tenella [2]; 120 g/ton in feed): 58.6 Grams
- F/G Day 4-10 (Eimeria tenella [2]; 120 g/ton in feed): 1.83
- Gain/Bird Grams Day 4-10 (Eimeria tenella [2]; 120 g/ton in feed): 169.7 Grams
- anticoccidial activity (in words) (Eimeria tenella [2]; 120 grams per ton): good anticoccidial activity
- Average Gain ([3]; 11 days): 214 g
- Gain/Feed Ratio ([3]; 11 days): 63.1
- Average Weight ([3]; Table 4): 274.8
- Gain/Feed ([3]; Table 4): 63.1
- Average Gain Index ([3]; unmedicated = 100): 104.2
- Gain/Feed Ratio Index ([3]; unmedicated = 100): 99.0
- Gain/Feed Data ([4]; 12 days): .595
- Gains/gram Data ([4]; 12 days): 212.4 gram
- Gain/Feed Index Relative to #1 ([4]; #1 = unmedicated): 105.7
- Gains Index Relative to #1 ([4]; #1 = unmedicated): 114.8
- Gain/Feed Index Relative to #2 ([4]; #2 = zinc bacitracin): 99.8
- Gains Index Relative to #2 ([4]; #2 = zinc bacitracin): 101.3
